The source of these data is ChEMBL document CHEMBL3774333, “Identification of SNAIL1 Peptide-Based Irreversible Lysine-Specific Demethylase 1-Selective Inactivators” (J Med Chem, 2016).

One may read the IC50 as the point on the concentration scale where inhibition reaches its midpoint. A higher IC50 goes with weaker potency.

Data set [1] addresses T1, Lysine-specific histone demethylase 1A (Homo sapiens, UniProt O60341). Nature of the data set: biochemical.
Description: Inhibition of full length N-terminal His-tagged human recombinant LSD1 (1 to 852 residues) expressed in Escherichia coli BL21(DE3) cells using H3K4me2 peptide as substrate preincubated for 5 mins followed by substrate addition measured for 30 mins by peroxidase coupled assay
Data set [2] deals with T1, Lysine-specific histone demethylase 1A. Put plainly: Inhibition of LSD1 in human HeLa cells assessed as H3K4me2/H3 ratio at 20 uM after 24 hrs by Western blot analysis in absence of fetal bovine serum. In kind it is cell-based. For orientation: A western blot detects proteins with antibodies after separation by electrophoresis.
Data set [3] has as its system HeLa. Put plainly: Antiproliferative activity against human HeLa cells assessed as reduction in cell viability at 100 uM treated for 24 hrs measured after 48 hrs by alamar blue assay in absence of fetal bovine serum. In kind it is functional, cell-based. (Resazurin is reduced to fluorescent resorufin, in cell work by metabolically active cells.)
Data set [4] deals with HeLa. Put plainly: Antiproliferative activity against human HeLa cells assessed as reduction in cell viability at 300 uM treated for 24 hrs measured after 48 hrs by alamar blue assay in absence of fetal bovine serum relative to control. It counts as functional.
In data set [5] the target is T2, Lysine-specific histone demethylase 2 (Homo sapiens, UniProt Q8NB78).
T2 sequence (Q8NB78 whole entry): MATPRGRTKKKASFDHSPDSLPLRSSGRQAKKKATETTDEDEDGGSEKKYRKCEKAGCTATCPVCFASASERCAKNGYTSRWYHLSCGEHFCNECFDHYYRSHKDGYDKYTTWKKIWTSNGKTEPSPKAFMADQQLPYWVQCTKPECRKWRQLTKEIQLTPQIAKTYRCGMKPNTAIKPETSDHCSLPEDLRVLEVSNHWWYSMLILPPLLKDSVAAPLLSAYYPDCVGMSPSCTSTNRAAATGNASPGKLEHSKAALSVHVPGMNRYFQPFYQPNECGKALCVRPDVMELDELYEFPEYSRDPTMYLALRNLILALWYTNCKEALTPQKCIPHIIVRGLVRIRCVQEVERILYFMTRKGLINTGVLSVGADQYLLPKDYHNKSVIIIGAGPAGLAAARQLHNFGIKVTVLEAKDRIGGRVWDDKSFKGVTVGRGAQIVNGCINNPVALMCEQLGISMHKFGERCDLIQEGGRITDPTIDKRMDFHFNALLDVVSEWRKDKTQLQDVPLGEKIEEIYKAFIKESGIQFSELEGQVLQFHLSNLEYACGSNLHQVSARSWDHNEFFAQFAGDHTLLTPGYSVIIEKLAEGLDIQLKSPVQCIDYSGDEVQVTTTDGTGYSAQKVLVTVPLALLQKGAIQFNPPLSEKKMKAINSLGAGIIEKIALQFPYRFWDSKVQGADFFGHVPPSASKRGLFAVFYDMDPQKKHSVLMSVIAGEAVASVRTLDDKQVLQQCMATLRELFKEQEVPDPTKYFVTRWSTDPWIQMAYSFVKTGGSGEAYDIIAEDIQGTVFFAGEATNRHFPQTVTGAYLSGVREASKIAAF
Put plainly: biochemical.
Description: Inhibition of full length N-terminal His-tagged human LSD2 (1 to 822 residues) expressed in Escherichia coli BL21(DE3) cells using H3K4me2 peptide substrate by MALDI-TOF mass spectrometric analysis

The target of data set [6] is T3, Amine oxidase [flavin-containing] A (Homo sapiens, UniProt P21397).
T3 sequence (P21397 whole entry): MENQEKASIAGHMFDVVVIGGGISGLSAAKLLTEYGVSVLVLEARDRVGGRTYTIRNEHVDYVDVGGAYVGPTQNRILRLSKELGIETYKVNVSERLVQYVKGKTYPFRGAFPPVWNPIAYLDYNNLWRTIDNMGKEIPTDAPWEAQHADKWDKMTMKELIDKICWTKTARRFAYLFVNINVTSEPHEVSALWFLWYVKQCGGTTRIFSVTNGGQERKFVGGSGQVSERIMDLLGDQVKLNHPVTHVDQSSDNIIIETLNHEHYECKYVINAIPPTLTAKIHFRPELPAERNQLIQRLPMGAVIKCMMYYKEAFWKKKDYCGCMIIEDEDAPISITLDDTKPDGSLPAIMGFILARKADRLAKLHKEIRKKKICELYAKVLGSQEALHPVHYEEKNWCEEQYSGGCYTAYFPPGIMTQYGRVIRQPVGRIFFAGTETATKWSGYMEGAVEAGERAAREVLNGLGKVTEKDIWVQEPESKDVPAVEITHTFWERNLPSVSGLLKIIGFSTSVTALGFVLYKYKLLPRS
Put plainly: biochemical.
Description: Inhibition of human recombinant MAO-A expressed in baculovirus infected BTI insect cells using (4S)-4,5-dihydro-2-(6-hydroxybenzothiazolyl)-4-thiazolecarboxylic acid as substrate incubated for 60 mins by MAO-Glo assay

Data set [7] concerns the target Lysine-specific demethylase 5A (Homo sapiens, UniProt P29375).
Description: Inhibition of JARID1A (unknown origin) using H3K4me3 peptide substrate preincubated for 5 mins followed by substrate addition by MALDI-TOF mass spectrometric analysis
Data set [8] deals with T4, Amine oxidase [flavin-containing] B (Homo sapiens, UniProt P27338).
T4 sequence (P27338 whole entry): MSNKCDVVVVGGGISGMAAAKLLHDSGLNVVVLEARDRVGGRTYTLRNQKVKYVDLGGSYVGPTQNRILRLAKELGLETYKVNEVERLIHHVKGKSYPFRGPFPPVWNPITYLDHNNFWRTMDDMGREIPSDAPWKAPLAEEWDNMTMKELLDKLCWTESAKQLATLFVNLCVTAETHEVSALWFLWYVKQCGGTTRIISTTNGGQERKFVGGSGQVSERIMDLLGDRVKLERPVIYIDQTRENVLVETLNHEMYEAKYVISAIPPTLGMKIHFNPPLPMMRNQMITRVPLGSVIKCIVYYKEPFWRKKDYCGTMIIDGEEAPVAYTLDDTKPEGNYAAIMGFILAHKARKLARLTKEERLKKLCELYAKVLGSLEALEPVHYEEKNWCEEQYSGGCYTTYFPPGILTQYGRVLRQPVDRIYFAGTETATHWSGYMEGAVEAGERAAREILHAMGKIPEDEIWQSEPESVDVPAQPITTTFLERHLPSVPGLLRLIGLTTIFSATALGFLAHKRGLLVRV
Put plainly: biochemical.
Description: Inhibition of human recombinant MAO-B expressed in baculovirus infected BTI insect cells using (4S)-4,5-dihydro-2-(6-hydroxybenzothiazolyl)-4-thiazolecarboxylic acid as substrate incubated for 60 mins by MAO-Glo assay

Data set [9] addresses T1, Lysine-specific histone demethylase 1A. Put plainly: Drug metabolism assessed as LSD1 (unknown origin)-mediated demethylation of compound by measuring (3S,6S,9S,12S)-1-((S)-1-((S)-6-amino-2-((S)-2-((S)-4-amino-2-((S)-1-((S)-3-carboxy-2-((S)-2-((S)-1-((6S,9S,12S,15S,18S,21S,24S)-1,28-diamino-21-(3-guanidinopropyl)-12-(3-hydrazinylpropyl)-9-(hydroxymethyl)-1-imino-15-isobutyl-18-isopropyl-7,10,13,16,19,22-hexaoxo-6-((S)-pyrrolidine-2-carboxamido)-2,8,11,14,17,20,23-heptaazaoctacosanecarbonyl)pyrrolidine-2-carboxamido)-3-hydroxypropanamido)propanoyl)pyrrolidine-2-carboxamido)-4-oxobutanamido)-5-guanidinopentanamido)hexanoyl)pyrrolidin-2-yl)-3-(2-amino-2-oxoethyl)-12-carbamoyl-6-(4-hydroxybenzyl)-9-(hydroxymethyl)-1,4,7,10-tetraoxo-2,5,8,11-tetraazapentadecan-15-oic acid level after 22 hrs by MALDI-TOF mass spectrometric analysis. It counts as ADME.

Each structure is given as a SMILES string. Calls of active or inactive are those of the source. No cut-off for these calls is given here. *1 amine or outer side, *2 acyl side, *3 side chain or, on linkers, in order; H or OH if unused. Where a SMILES comes first, the peptide text is derived from it. [ ]: non-standard residue; d: D form. X2 = CNNCCC[C@H](N[*:1])C(=O)[*:2] Some results are limits rather than exact numbers.

Lysine-specific demethylase 5A, sequence (P29375 whole entry): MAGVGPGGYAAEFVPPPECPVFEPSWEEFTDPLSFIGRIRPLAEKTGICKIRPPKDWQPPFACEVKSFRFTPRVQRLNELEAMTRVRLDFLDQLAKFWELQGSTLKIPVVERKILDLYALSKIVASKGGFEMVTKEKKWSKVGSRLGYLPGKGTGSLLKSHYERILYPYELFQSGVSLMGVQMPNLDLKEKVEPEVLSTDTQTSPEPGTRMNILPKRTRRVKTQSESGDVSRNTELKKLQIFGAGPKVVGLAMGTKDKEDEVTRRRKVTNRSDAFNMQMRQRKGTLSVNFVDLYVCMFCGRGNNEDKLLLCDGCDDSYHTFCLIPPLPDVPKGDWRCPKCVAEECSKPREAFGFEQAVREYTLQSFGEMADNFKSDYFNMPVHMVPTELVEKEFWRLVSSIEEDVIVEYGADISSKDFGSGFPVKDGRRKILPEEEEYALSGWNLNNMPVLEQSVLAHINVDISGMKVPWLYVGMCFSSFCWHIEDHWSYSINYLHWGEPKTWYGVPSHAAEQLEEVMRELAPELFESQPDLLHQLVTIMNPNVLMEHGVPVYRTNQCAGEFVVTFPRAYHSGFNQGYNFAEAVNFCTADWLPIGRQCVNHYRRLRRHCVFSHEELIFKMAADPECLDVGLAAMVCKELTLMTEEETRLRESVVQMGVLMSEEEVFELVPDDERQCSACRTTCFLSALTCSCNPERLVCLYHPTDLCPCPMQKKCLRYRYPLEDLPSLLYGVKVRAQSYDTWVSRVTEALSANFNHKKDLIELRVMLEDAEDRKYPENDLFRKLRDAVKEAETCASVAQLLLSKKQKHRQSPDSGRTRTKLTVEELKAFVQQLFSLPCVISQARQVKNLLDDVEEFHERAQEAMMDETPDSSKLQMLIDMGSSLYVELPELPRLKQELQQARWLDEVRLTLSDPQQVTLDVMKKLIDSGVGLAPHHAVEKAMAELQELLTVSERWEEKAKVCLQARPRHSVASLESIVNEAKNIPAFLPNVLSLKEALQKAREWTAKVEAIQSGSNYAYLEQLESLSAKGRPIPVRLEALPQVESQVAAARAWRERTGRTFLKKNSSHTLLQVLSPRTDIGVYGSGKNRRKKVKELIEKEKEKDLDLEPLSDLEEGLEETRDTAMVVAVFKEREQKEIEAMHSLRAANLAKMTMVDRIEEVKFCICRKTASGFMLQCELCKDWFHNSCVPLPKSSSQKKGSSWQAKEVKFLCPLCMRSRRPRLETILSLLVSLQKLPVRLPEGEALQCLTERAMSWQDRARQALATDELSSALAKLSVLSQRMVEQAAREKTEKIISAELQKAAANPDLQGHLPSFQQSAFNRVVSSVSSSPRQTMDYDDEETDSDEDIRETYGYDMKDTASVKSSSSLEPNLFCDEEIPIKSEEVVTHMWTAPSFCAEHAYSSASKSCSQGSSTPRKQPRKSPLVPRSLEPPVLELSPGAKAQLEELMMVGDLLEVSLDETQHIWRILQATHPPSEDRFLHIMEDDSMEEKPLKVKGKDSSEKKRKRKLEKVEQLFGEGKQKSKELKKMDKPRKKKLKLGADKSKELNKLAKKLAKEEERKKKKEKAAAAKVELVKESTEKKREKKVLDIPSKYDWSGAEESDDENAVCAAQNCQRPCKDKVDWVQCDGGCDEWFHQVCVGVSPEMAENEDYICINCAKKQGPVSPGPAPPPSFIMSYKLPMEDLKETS

Turning to `O=C(O)c1ccc(CN2CCC(CN[C@H]3C[C@@H]3c3ccccc3)CC2)cc1`, the 50% inhibitory concentration (IC50) in [1] was determined as 0.61 µM. For the same molecule, the Ratio in data set [2] came out at 2.03. Further, the outcome with HeLa [3] was inactive. Moreover, the Activity in the data set with HeLa [4] is given as 9.96%.
On to `CNNCCC[C@H](NC(=O)[C@H](CO)NC(=O)[C@H](CCCNC(=N)N)NC(=O)[C@@H]1CCCN1)C(=O)N[C@@H](CC(C)C)C(=O)N[C@H](C(=O)N[C@@H](CCCNC(=N)N)C(=O)N[C@@H](CCCCN)C(=O)N1CCC[C@H]1C(=O)N[C@@H](CO)C(=O)N[C@@H](CC(=O)O)C(=O)N1CCC[C@H]1C(=O)N[C@@H](CC(N)=O)C(=O)N[C@@H](CCCNC(=N)N)C(=O)N[C@@H](CCCCN)C(=O)N1CCC[C@H]1C(=O)N[C@@H](CC(N)=O)C(=O)N[C@@H](Cc1ccc(O)cc1)C(=O)N[C@@H](CO)C(=O)N[C@@H](CCC(N)=O)C(N)=O)C(C)C` (H-PRS[X2]LVRKPSDPNRKPNYSQ-NH2), for which the IC50 in [5] is above 50 µM; in data set [6], above 30 µM; in [7], above 50 µM; in data set [8], above 30 µM; in data set [1], 8.4 µM. Also, the Drug metabolism result in data set [9] was “metabolite_detected”.
